The source of these data is US11985994B2, “Sweetener and flavor compositions, methods of making and methods of use thereof” (EPC Natural Products Co., Ltd., priority 2018, dated 2024).

Where two headings read alike, the source gives them in different places.

For assay [1] the following is noted: cited from earlier work.
The nature of assay [2]: Sensory evaluation of GSGs and SGs, thaumatin, NHDC and combinations (Example 255). Details: species or system human. The protocol: 4.5 ppm Thaumatin (equivalent to 10 ppm EPCalin) was dissolved in water. Increasing amounts of NHDC (1-5 ppm) were added to the solution and the sensory properties were evaluated.
50 ppm (GSGs and SGs) were dissolved in water. Increasing amounts of NHDC (1-5 ppm) were added to the solution and the sensory properties were evaluated.
50 ppm (GSGs and SGs) and 4.5 ppm Thaumatin (equivalent to 10 ppm EPCalin) were dissolved in water. Increasing amounts of NHDC (1-5 ppm) were added to the solution and the sensory properties were evaluated.
Sweetness intensity was rated on 5-point scale

Assay [3] is described as follows: Assay to test DPPH radical-scavenging activity (Example 65). The format is physicochemical. As to conditions: combinations of amino acids and Reb-A, 100 °C; less pronounced than glucose or xylose. The protocol:
1 mg 1,1-Diphenyl-2-picrylhydrazyl radical (DPPH)/ml ethanol, dilution to assay concentration were prepared in ethanol (40 μg/mL); Calibration samples were prepared with Ascorbic acid in a concentration of 0-10 μg/mL, as a negative control sample, water was used.
Samples in aqueous solution were used as such or diluted with water.
A 0.1 ml sample (or calibration standard) was mixed with 3.9 ml solution of DPPH (100 μMolar) and reacted while protected from light at room temperature for 30 min. Absorbance was determined at 517 nm against ethanol.
10 mM of amino acid and/or 10 mM sugar were dissolved in 10 ml 0.1 mM KH2PO4-buffer, pH=7.8.
The samples were kept at 100° C. in sealed glass vials (Pyrex 15 ml with screw caps) for 0 (before reaction), 2.5 or 5.0 hours. Thereafter the samples were transferred to an ice water bath and cooled down to room temperature. These samples were diluted 1:10 and used for the test assay for anti-oxidant potential.
In general terms: DPPH is a stable violet radical that fades when it is reduced.

Assay [4] in a line: Degree of kokumi of Tamarind gum solution (Example 189). Details: species or system human. The protocol: Tamarind gum was added to pure water to prepare several Tamarind gum solutions with a concentration gradient as standard solutions for judging the degree of kokumi of the Tamarind gum solutions.
A Tamarind gum solution was prepared at a concentration of 400 ppm. Different amounts of MRP, S-MRP or TS-MRP were added to the solution such that the concentration of MRP, S-MRP or TS-MRP in the solution was 50 ppm, 75 ppm, 100 ppm, 125 ppm or 150 ppm.
(§1) Method: For evaluation of the degree of kokumi, the sample solutions (described above) were tested by a panel of four people. The panel was asked to taste the sample solutions and compare them to standard solutions (described above) to judge to which standard solution the degree of kokumi of sample solution is similar 1 trained taster tasted independently the samples first. The tester was allowed to re-taste, and then made judgment. Afterwards, another 3 tasters tasted and the judgments were discussed openly to find a suitable description. In the case that more than 1 taster disagreed with the result, the tasting was repeated.

Assay [5] can be described thus: Degree of kokumi of carrageenan solution (Example 187). Also noted: species or system human. The protocol:
Carrageenan was added to pure water to prepare several carrageenan solutions with a concentration gradient as standard solutions for judging the degree of kokumi of the carrageenan solutions.
A carrageenan solution was prepared at a concentration of 400 ppm. Different amounts of MRP, S-MRP or TS-MRP were added to the solution such that the concentration of MRP, S-MRP or TS-MRP in the solution was 50 ppm, 75 ppm, 100 ppm, 125 ppm or 150 ppm.
as §1, with “judge” for “judge to”, “similar to.” for “similar”, “description in” for “description. In”

Assay [6] can be described thus: Degree of kokumi of gellan gum solution (Example 188). Details: species or system human. The method, then: Gellan gum was added to pure water to prepare several gellan gum solutions with a concentration gradient as standard solutions for judging the degree of kokumi of the gellan gum solutions.
A gellan gum solution was prepared at a concentration of 400 ppm. Different amounts of MRP, S-MRP or TS-MRP were added to the solution such that the concentration of MRP, S-MRP or TS-MRP in the solution was 50 ppm, 75 ppm, 100 ppm, 125 ppm or 150 ppm.
as §1

Consider `COc1ccc(CCC(=O)c2c(O)cc(O[C@@H]3O[C@H](CO)[C@@H](O)[C@H](O)[C@H]3O[C@@H]3O[C@@H](C)[C@H](O)[C@@H](O)[C@H]3O)cc2O)cc1O` [NHDC, Neohesperidin dihydrochalcone], for which the values for the sweetness in assay [1] (at threshold concentrations) and in assay [1] (weight-for-weight) were 1500-1800 times sweeter than sugar and “about 340 times sweeter than sugar”, respectively. For the same compound, the lingering entry is listed as “boosts the lingering” in assay [2] (4, 5 ppm added to 50 ppm GSGs and SGs and 4.5 ppm Thaumatin); “long lasting lingering” in assay [2] (4 and 5 ppm added to 4.5 ppm Thaumatin in water). On to `C=C1C[C@@]23CC[C@H]4[C@@](C)(CCC[C@@]4(C)C(=O)O[C@@H]4O[C@H](CO)[C@@H](O)[C@H](O)[C@H]4O)[C@@H]2CC[C@]1(O[C@@H]1O[C@H](CO)[C@@H](O)[C@H](O[C@@H]2O[C@H](CO)[C@@H](O)[C@H](O)[C@H]2O)[C@H]1O[C@@H]1O[C@H](CO)[C@@H](O)[C@H](O)[C@H]1O)C3` [Reb-A, Rebaudioside A], for which the anti-oxidant properties result in assay [3] is on record as “substantial anti-oxidant properties”.

On to Tamarind gum, for which the “concentration above which taste like starch paste is clearly felt” value in assay [4] was “exceeds 1400 ppm”. As to carrageenan, in assay [5], the “concentration above which taste like starch paste is clearly felt” value is “exceeds 1000 ppm”. As to gellan gum, the “concentration above which taste like starch paste is clearly felt” value in assay [6] was “exceeds 1400 ppm”.
